TGI and GI50 data for 15 compounds are collected here from PubChem BioAssay (NCI).

Test systems include HCT-116 colon; NCI-H23 lung; TK-10 renal; COLO 205 colon; MDA-N; HT29 colon; M14 melanoma; HCT-15 colon; CAKI-1 renal; A498 renal.
Common to all, as to experiment: NCI anticancer screen, dose series, 48 h

Several values for one entry are separate records, joined by “and”; a condition that tells them apart may be missing. Equal values may be shown once.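 96-well plates; 48 h exposure; 5 concentrations. Endpoints by linear interpolation between flanking doses. Not reached: highest tested concentration assigned. GI50 = concentration required for 50% inhibition of growth. At the TGI there is no net growth.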 Some results are limits rather than exact numbers.

On to `O=C(O)CN(CC(=O)O)C1CCCCC1N1CC(=O)OC(=O)C1` (stereo unspecified), for which the TGI in the test on HCT-116 colon, in the test on NCI-H23 lung, in the test with TK-10 renal, in the test on COLO 205 colon, in the test on MDA-N and in the test on HT29 colon was greater than 100 µM in each case. In addition, the TGI in the test on M14 melanoma, with HCT-15 colon, in the test on CAKI-1 renal and in the test with A498 renal was greater than 100 µM in each case.
Turning to `Cc1cc(C)nc(NS(=O)(=O)c2ccc(NC(=O)c3c4ccccc4nc4ccccc34)cc2)n1`, the TGI in the test on HCT-116 colon, in the test on NCI-H23 lung, with TK-10 renal, in the test on COLO 205 colon, in the test with MDA-N and in the test with HT29 colon was greater than 100 µM each time. In addition, the TGI in the test on M14 melanoma, in the test on HCT-15 colon, in the test with CAKI-1 renal and in the test with A498 renal was greater than 100 µM each time.
Consider `O=[N+]([O-])c1ccccc1OCCOc1ccccc1[N+](=O)[O-]`, for which the TGI with HCT-116 colon, in the test on NCI-H23 lung, in the test on TK-10 renal, in the test on COLO 205 colon, in the test with MDA-N and in the test on HT29 colon was greater than 100 µM throughout. In addition, the TGI with M14 melanoma, in the test with HCT-15 colon, in the test with CAKI-1 renal and with A498 renal was greater than 100 µM each time.
Turning to `CC(=O)Nc1ccc2c(C)c3c(nc2n1)[nH]c1ccccc13`, the TGI is 58.4 µM in the test on HCT-116 colon; 91.1 µM with NCI-H23 lung; greater than 100 µM in the test on TK-10 renal; 32 µM in the test on COLO 205 colon; 44 µM in the test on MDA-N; greater than 100 µM in the test on HT29 colon. Moreover, the TGI is 82.2 µM with M14 melanoma, 64.5 µM in the test with HCT-15 colon, 96.2 µM in the test with CAKI-1 renal and greater than 100 µM in the test with A498 renal.
As for `N#Cc1c(-c2ccc(Cl)cc2)c2c(nn3c4ccc5ccccc5c4nnc23)[nH]c1=O`, the TGI in the test with HCT-116 colon is 7.02 µM; with NCI-H23 lung it was 4.56 µM; in the test with TK-10 renal, greater than 100 µM; with COLO 205 colon it was 10.6 µM; in the test with MDA-N, 5.78 µM; in the test on HT29 colon, greater than 33.5 µM. In addition, the TGI turned out to be 6.14 µM with M14 melanoma, 6.35 µM with HCT-15 colon, 8.5 µM in the test on CAKI-1 renal and 3.69 µM in the test on A498 renal.
For the compound `N#CN1C2CCC1CC(=O)C2`, the TGI in the test on HCT-116 colon, in the test with NCI-H23 lung, in the test with TK-10 renal, with COLO 205 colon, with MDA-N and with HT29 colon was greater than 100 µM throughout. Further, the TGI in the test with M14 melanoma, in the test on HCT-15 colon, with CAKI-1 renal and in the test on A498 renal was greater than 100 µM each time.
Take `C[C@@H]1OC(=O)C[C@H]2CC(=O)N(CCC3CN(C(=O)OCc4ccccc4)c4ccccc43)C[C@@H]21` (stereo partly specified): the TGI in the test with HCT-116 colon, in the test with NCI-H23 lung, in the test with TK-10 renal, with COLO 205 colon, with MDA-N and in the test with HT29 colon was greater than 100 µM in each case. Further, the TGI with M14 melanoma, in the test on HCT-15 colon, with CAKI-1 renal and in the test with A498 renal was greater than 100 µM in each case.
In the case of `COc1ccc2c(c1)C(=O)CC1c3cnccc3C(=O)N21` (stereo unspecified), the TGI with HCT-116 colon, in the test on NCI-H23 lung, in the test with TK-10 renal, in the test on COLO 205 colon, in the test with MDA-N and in the test on HT29 colon was greater than 100 µM in each case. Further, the TGI in the test on M14 melanoma, in the test on HCT-15 colon, in the test on CAKI-1 renal and with A498 renal was greater than 100 µM throughout.
`CC1=NNC(=O)C1C1C(=O)NN=C(c2c[nH]c3ccccc23)C1Br` (stereo unspecified): the TGI in the test on HCT-116 colon, with NCI-H23 lung, with TK-10 renal, in the test with COLO 205 colon, in the test on MDA-N and in the test with HT29 colon was greater than 100 µM in each case. The TGI in the test with M14 melanoma, in the test on HCT-15 colon, in the test with CAKI-1 renal and in the test on A498 renal was greater than 100 µM each time.
As to `CC(=O)c1c(-c2cccc3ccccc23)c(C#N)c(=S)n(C2OC(CO)C(O)C(O)C2O)c1C` (stereo unspecified), the TGI in the test with HCT-116 colon, with NCI-H23 lung, in the test with TK-10 renal, with COLO 205 colon, with MDA-N and with HT29 colon was greater than 100 µM throughout. In addition, the TGI in the test with M14 melanoma, in the test with HCT-15 colon, in the test on CAKI-1 renal and in the test with A498 renal was greater than 100 µM in each case. For the same compound, in the test on M14 melanoma, the GI50 is > 100 µM and 42.6 µM.
As for `CC(C)/C(Cl)=N/OC(=O)Nc1ccc(Br)cc1`, the TGI in the test on HCT-116 colon is 10.4 µM; in the test with NCI-H23 lung, 26.5 µM; in the test on TK-10 renal, 26.2 µM; in the test with COLO 205 colon, 3.43 µM; in the test with MDA-N, 15.7 µM; in the test with HT29 colon, 18.5 µM. In addition, the TGI with M14 melanoma stood at 8.33 µM; in the test with HCT-15 colon, 5.34 µM; in the test on CAKI-1 renal, 3.2 µM; with A498 renal it was 33.8 µM.
`C=CCOC(=O)N1c2ccc(O[Si](C)(C)C(C)(C)C)cc2[C@@]23O[C@@]24[C@@H]1C#C/C=C\C#C[C@]3(O)C(OC)(OC)C[C@@H]4C`: the TGI with HCT-116 colon, in the test with NCI-H23 lung, in the test with TK-10 renal, with COLO 205 colon, in the test with MDA-N and in the test on HT29 colon was greater than 100 µM each time. Moreover, the TGI with M14 melanoma is greater than 100 µM; in the test on HCT-15 colon, greater than 100 µM; in the test with CAKI-1 renal, greater than 100 µM; in the test on A498 renal, 5.48 µM.
For `CC(=O)O[C@H]1CC(C)(C)C(=C=C/C(C)=C/C=C/C=C/C=C(C)/C=C2C=C(/C=C/[C@@]34O[C@]3(C)C[C@@H](O)CC4(C)C)C(=O)O/2)[C@](C)(O)C1`, the TGI in the test with HCT-116 colon was 50.5 µM; in the test on NCI-H23 lung it was 18.1 µM; with TK-10 renal it was 21.3 µM; in the test on COLO 205 colon, greater than 100 µM; in the test on MDA-N, 49.5 µM; in the test on HT29 colon it was greater than 100 µM. Besides, the TGI was 25.6 µM in the test with M14 melanoma, 35 µM in the test on HCT-15 colon, 98.1 µM in the test with CAKI-1 renal and greater than 100 µM with A498 renal.
Consider `C=CCSC1=N/C(=C\c2ccc(Cl)cc2)C(=O)N1CC=C`, for which the TGI in the test with HCT-116 colon, in the test with NCI-H23 lung, with TK-10 renal, in the test with COLO 205 colon, in the test with MDA-N and with HT29 colon was greater than 100 µM in each case. In addition, the TGI in the test with M14 melanoma was greater than 100 µM; in the test on HCT-15 colon it was greater than 100 µM; with CAKI-1 renal it was greater than 100 µM; with A498 renal, 52.4 µM.
Turning to `Cc1ccc2nc(SCC(=O)N=Nc3c(O)[nH]c4ccccc34)n(-c3ccccc3)c(=O)c2c1`, the TGI in the test on HCT-116 colon worked out at 28.4 µM; in the test with NCI-H23 lung, 33.1 µM; with TK-10 renal, 29.2 µM; in the test with COLO 205 colon it was 33 µM; in the test with MDA-N it was 37.6 µM; in the test on HT29 colon, 33.5 µM. The TGI came to 29.8 µM with M14 melanoma, 40.5 µM in the test on HCT-15 colon, 43.3 µM in the test on CAKI-1 renal and 28.1 µM with A498 renal.
